Results on 20 compounds are retold here after US20060235222A1, “Indole-derivative modulators of steroid hormone nuclear receptors” (ELI LILLY AND COMPANY, priority 2003, published 2006).

In general, melting point refers to the temperature of the solid-liquid transition. A word on the Ki: it is the dissociation constant of the complex between target and ligand, obtained from inhibition or displacement.

The target of one data set is T1, human MR (Homo sapiens, UniProt P08235).
T1 construct: The full length human MR gene is cloned from a human kidney or human brain cDNA library; inferred from own knowledge of the pAcHLT vector (N); made in house; host or cells: Sf9 insect cells (baculovirus)
T1 sequence (P08235 1-984): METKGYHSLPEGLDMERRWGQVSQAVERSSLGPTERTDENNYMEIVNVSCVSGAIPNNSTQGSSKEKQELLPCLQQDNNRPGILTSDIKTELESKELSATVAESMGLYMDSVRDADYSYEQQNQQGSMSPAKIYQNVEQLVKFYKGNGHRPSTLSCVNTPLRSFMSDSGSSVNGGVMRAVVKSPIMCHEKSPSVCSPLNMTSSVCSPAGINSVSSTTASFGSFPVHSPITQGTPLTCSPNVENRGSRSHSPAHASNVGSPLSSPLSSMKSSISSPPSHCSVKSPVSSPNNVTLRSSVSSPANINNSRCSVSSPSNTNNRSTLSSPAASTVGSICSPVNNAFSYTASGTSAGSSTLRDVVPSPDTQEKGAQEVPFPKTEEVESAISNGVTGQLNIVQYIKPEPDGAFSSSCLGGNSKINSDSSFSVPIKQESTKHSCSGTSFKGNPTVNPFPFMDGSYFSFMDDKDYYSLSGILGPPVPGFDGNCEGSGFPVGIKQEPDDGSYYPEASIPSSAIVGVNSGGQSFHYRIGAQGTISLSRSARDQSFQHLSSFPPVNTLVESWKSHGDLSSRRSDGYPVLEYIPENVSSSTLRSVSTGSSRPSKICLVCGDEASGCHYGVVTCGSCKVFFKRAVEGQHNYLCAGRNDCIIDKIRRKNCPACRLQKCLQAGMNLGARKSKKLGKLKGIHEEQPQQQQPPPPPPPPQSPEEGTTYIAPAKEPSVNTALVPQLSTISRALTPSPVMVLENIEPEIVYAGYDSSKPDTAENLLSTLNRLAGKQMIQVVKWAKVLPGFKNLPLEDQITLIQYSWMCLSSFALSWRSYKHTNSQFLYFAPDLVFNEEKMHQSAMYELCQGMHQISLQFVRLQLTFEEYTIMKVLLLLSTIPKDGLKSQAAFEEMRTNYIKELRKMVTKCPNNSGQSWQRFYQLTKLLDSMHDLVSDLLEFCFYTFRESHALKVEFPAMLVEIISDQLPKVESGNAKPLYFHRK
Nature of the data set: Mineralocorticoid Receptor Binding Assay (Method 1), [3H]-aldosterone competition. Conditions: 0.5 nM [3H]-aldosterone, human MR expressed in Sf9 cells. A digest of the protocol:
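Full-length human MR expressed in Sf9 cells via baculovirus; lysate supernatant (about 20-25 μg protein) incubated with 0.5 nM [3H]-aldosterone and test compound for about 16 h at 4° C. Buffer was Tris/molybdate/phosphate/pyrophosphate with 10% glycerol, pH 7.5; filter-bound complex counted by scintillation.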

Data set [1] deals with T2, human GR (glucocorticoid receptor) (Homo sapiens, UniProt P04150).
T2 construct: expressed in transfected cells; host or cells: 293 cells
T2 sequence (P04150 1-777): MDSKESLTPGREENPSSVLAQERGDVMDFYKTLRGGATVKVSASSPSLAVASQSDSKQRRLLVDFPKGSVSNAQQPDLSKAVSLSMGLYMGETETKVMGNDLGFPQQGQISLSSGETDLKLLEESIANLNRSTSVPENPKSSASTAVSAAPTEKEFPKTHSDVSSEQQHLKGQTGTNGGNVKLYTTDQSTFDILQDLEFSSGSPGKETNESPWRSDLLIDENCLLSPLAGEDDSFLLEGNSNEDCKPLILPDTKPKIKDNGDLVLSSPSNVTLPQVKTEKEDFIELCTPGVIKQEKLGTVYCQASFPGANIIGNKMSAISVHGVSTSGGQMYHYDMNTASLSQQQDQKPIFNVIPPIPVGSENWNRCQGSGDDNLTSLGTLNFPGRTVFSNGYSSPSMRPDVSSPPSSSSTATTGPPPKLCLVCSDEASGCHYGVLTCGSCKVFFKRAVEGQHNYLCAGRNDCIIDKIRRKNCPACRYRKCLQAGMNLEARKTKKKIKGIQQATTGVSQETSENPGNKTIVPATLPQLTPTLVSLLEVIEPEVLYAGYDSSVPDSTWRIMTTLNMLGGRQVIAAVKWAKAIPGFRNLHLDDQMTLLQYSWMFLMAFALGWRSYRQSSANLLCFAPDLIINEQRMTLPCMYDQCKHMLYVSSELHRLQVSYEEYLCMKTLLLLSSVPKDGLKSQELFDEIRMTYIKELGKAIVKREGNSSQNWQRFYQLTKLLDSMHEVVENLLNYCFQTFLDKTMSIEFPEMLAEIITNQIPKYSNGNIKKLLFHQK
Nature of the data set: Alternative Binding Assay Protocol (Method 2), 293-GR lysate, 3H-dexamethasone competition. The conditions noted are these: 0.3 nM 3H-dexamethasone. As for the experimental part:
Alternative Binding Assay Protocol for MR, GR, AR, and PR (Method 2):
Cell lysates from 293 cells overexpressing human GR (glucocorticoid receptor), AR (androgen receptor), MR (mineralocorticoid receptor) or PR (progesterone-receptor) are used for competition binding assays to determine Ki values for test compounds. […] Competing compounds are added at various concentraions in half-log increments. Non-specific binding is determined in the presence of 500 nM dexamethasone for GR binding, 500 nM aldosterone for MR binding, or 500 nM methyltrienolone for AR and PR binding. The binding reaction (140 μl) is incubated for overnight at 4° C., then 70 μl of cold charcoal-dextran buffer (containing per 50 ml of assay buffer, 0.75 g of charcoal and 0.25 g of dextran) is added to each reaction. Plates are mixed 8 minutes on an orbital shaker at 4° C. Plates are then centrifuged at 3,000 rpm at 4° C. for 10 minutes. An aliquot of 120 μl of the mix is transferred to another 96-well plate and 175 μl of Wallac Optiphase “Hisafe 3” scintillation fluid is added to each well. Plates are sealed and shaken vigorously on an orbital shaker. After an incubation of 2 hrs, plates are read in a Wallac Microbeta counter. […] The Kd for ^3H-dexamethasone for GR binding, ^3H-methyltrienolone for AR binding, ^3H-aldosterone for MR binding, or ^3H-methyltrienolone for PR binding, is determined by saturation binding. The IC50 values for compounds are converted to Ki using Cheng-Prusoff equation and the Kd determined by saturation binding assay.

Take `CCC(CC)(c1ccc2oc(C)nc2c1)c1c[nH]c2c(NS(C)(=O)=O)cccc12` [Example 145, N-{3-[1-Ethyl-1-(2-methyl-benzooxazol-5-yl)-propyl]-1H-indol-7-yl}-methanesulfonamide]: the melting point lay in the range of 152 to 160 °C.

As for `CCC(CC)(c1ccc2c(c1)nc(C)n2C)c1c[nH]c2c(NS(C)(=O)=O)cccc12` [Example 162, N-{3-[1-(1,2-Dimethyl-1H-benzoimidazol-5-yl)-1-ethyl-propyl]-1H-indol-7-yl}-methanesulfonamide], the melting point was in the range of 275 to 278 °C.

In turn, `CCC(CC)(c1ccc2sc(C)nc2c1)c1c[nH]c2c(NS(C)(=O)=O)cccc12` [Example 140, N-{3-[1-Ethyl-1-(2-methyl-benzothiazol-5-yl)-propyl]-1H-indol-7-yl}-methanesulfonamide] registered a melting point of 112 to 117 °C.

Compound `CCC(CC)(c1ccc2ncsc2c1)c1c[nH]c2c(NS(C)(=O)=O)cccc12` [Example 149, N-[3-(1-Benzothiazol-6-yl-1-ethyl-propyl)-1H-indol-7-yl]-methanesulfonamide] had a melting point of 117 to 120 °C. The compound further displayed a Ki on human MR of under 500 nM.

`CCC(CC)(c1cccc2oc(C)cc12)c1c[nH]c2c(NS(C)(=O)=O)cccc12` [Example 160, N-{3-[1-Ethyl-1-(2-methyl-benzofuran-4-yl)-propyl]-1H-indol-7-yl}-methanesulfonamide] came in with a melting point of 85 to 90 °C.

With `CCC(CC)(c1ccc2scnc2c1)c1c[nH]c2c(NS(C)(=O)=O)cccc12` [Example 142, N-[3-(1-Benzothiazol-5-yl-1-ethyl-propyl)-1H-indol-7-yl]-methanesulfonamide], the melting point was 105 to 115 °C (dec.). The compound also displayed a Ki at human MR of under 500 nM.

With `CCC(CC)(c1ccc2cc[nH]c2c1)c1c[nH]c2c(NS(C)(=O)=O)cccc12` [Example 159, N-{3-[1-Ethyl-1-(1H-indol-6-yl)-propyl]-1H-indol-7-yl}-methanesulfonamide], the melting point fell in the range of 110 to 115 °C. On human MR, this compound displayed an inhibition constant Ki of under 500 nM.

`CCC(CC)(c1ccc2nc(C(F)(F)F)[nH]c2c1)c1c[nH]c2c(NS(C)(=O)=O)cccc12` [Example 151, N-{3-[1-Ethyl-1-(2-trifluoromethyl-3H-benzoimidazol-5-yl)-propyl]-1H-indol-7-yl}-methanesulfonamide]: the melting point was 225 to 235 °C.

With `CCC(CC)(c1ccc2sc(NC(C)=O)nc2c1)c1c[nH]c2c(NS(C)(=O)=O)cccc12` [Example 150, N-{5-[1-Ethyl-1-(7-methanesulfonylamino-1H-indol-3-yl)-propyl]-benzothiazol-2-yl}-acetamide], the melting point fell in the range of 266 to 268 °C.

Consider `CCC(CC)(c1ccc2c(N)noc2c1)c1c[nH]c2c(NS(C)(=O)=O)cccc12` [Example 143, N-{3-[1-(3-Amino-benzo[d]isoxazol-6-yl)-1-ethyl-propyl]-1H-indol-7-yl}-methanesulfonamide], for which the melting point lay within 95 to 105 °C. This compound showed a Ki at human MR of under 500 nM.

With `CCC(CC)(c1ccc(N2CCOCC2)cc1)c1c[nH]c2c(NS(C)(=O)=O)cccc12` [Example 197], the Ki (at human MR; in data set [1]) was under 500 nM each time.

Turning to `CCC(CC)(c1ccc2oc(C)cc2c1)c1c[nH]c2c(NS(C)(=O)=O)cccc12` [Example 155, N-{3-[1-Ethyl-1-(2-methyl-benzofuran-5-yl)-propyl]-1H-indol-7-yl}-methanesulfonamide], the melting point was in the range of 100 to 105 °C.

Consider `CCC(CC)(c1ccc2oc(C)nc2c1)c1c[nH]c2c(NS(C)(=O)=O)cccc12` [Example 191], for which the Ki at human MR is under 500 nM; in data set [1] it was under 1000 nM.

`CC(c1ccccc1F)(c1c[nH]c2c(NS(C)(=O)=O)cccc12)C1CC1` (centres unmarked) [Example 168]: the Ki (on human MR; in data set [1]) was under 500 nM in each case.

With `CCC(CC)(c1ccc2c(ccn2C(C)=O)c1)c1c[nH]c2c(NS(C)(=O)=O)cccc12` [Example 156, N-{3-[1-(1-Acetyl-1H-indol-5-yl)-1-ethyl-propyl]-1H-indol-7-yl}-methanesulfonamide], the melting point fell in the range of 125 to 130 °C.

For `CC(c1ccccc1)(c1c[nH]c2c(NS(C)(=O)=O)cccc12)C1CC1` (centres unmarked) [Example 178], the Ki (at human MR; in data set [1]) was under 500 nM in each case.

In the case of `CCC(CC)(c1ccc2nc(N)sc2c1)c1c[nH]c2c(NS(C)(=O)=O)cccc12` [Example 144, N-{3-[1-(2-Amino-benzothiazol-6-yl)-1-ethyl-propyl]-1H-indol-7-yl}-methanesulfonamide], the melting point is 155 to 160 °C. Besides, at human MR, the inhibition constant Ki is under 500 nM.

On to `CC(C)CC(C)(c1ccccc1)c1c[nH]c2c(NS(C)(=O)=O)cccc12` (centres unmarked) [Example 187], for which the Ki (at human MR; in data set [1]) was under 500 nM throughout.

Turning to `CCC(CC)(c1ccc2[nH]ccc2c1)c1c[nH]c2c(NS(C)(=O)=O)cccc12` [Example 157, N-{3-[1-Ethyl-1-(1H-indol-5-yl)-propyl]-1H-indol-7-yl}-methanesulfonamide], the melting point is 115 to 120 °C. In addition, the Ki on human MR is under 500 nM.

In turn, `CCC(CC)(c1ccc2onc(N)c2c1)c1c[nH]c2c(NS(C)(=O)=O)cccc12` [Example 152, N-{3-[1-(3-Amino-benzo[d]isoxazol-5-yl)-1-ethyl-propyl]-1H-indol-7-yl}-methanesulfonamide] showed a melting point of 155 to 161 °C. This compound also came in with a Ki at human MR of under 500 nM.
